This note sets out measurements from US9034299B2, “ATF4 inhibitors and their use for neural protection, repair, regeneration, and plasticity” (priority 2007, dated 2015).

What all share (type): cell-based, mouse
In test [1] the test system is embryonic cortical neurons. Briefly: Cell viability of primary cortical neurons (MTT assay, live/dead assay). As to the method:
(§1) FIG. 1. Amino acid depletion and thapsigargin treatment induce ATF4 and protect embryonic cortical neurons from oxidative stress-induced cell death. (A) Cortical neuronal cultures (1 d in vitro) were treated with a vehicle control (shown as C), 10 mM of the glutamate analogue HCA, 1 μg/ml arginase, 1 μM thapsigargin, 1 μg/ml arginase and 10 mM HCA, or 10 mM HCA and 1 μM thapsigargin. 24 h later, cell viability was determined using the MTT assay. The graph depicts mean (compared with control)±SD calculated from three separate experiments for each group (n=25). *, P<0.05 from HCA-treated cultures by the Kruskal-Wallis test followed by Dunn's multiple comparisons test. (B) Live/dead assay of cortical neuronal cultures (2 d in vitro). Live cells were detected by uptake and trapping of calcein-AM (green fluorescence). […] Bar, 50 μm. […] Cells were harvested at the indicated time points, and nuclear extracts were separated using gel electrophoresis and immunodetected using an antibody against ATF4. YY1 was monitored as a loading control. The immunoblot is a representative example of three experiments.
(§2) FIG. 5. ATF4 has a negative impact on the neuronal glutathione metabolism. (A) ATF4^+/+ (♦) and ATF4^−/− (▴) cortical neurons were treated with 10 mM HCA. At the indicated time points, cells were trypsinized, washed, and pelleted. Reduced glutathione (GSH) was determined in the cell pellets using HPLC electrochemical detection. Data are from three separate cultures, and each data point was measured in duplicate. Graph depicts mean±SD. (B) Schematic overview over cysteine uptake and glutathione synthesis and their inhibition. (C) ATF4^+/+ and ATF4^−/− cortical neurons were treated with a vehicle control (shown as C) or 200 μM BSO. 24 h later, cell viability was determined using the MTT assay. The graph depicts mean (compared with control)±SD calculated from five separate experiments for each group (n=46 ATF4^+/+ and 58 ATF4^−/−). *, P<0.05 from untreated ATF4^+/+ cultures by the Kruskal-Wallis test followed by Dunn's multiple comparisons test. The difference between treated and untreated ATF4^−/− neurons was not significant (n.s.). (D) Live/dead assay displaying untreated and BSO-treated ATF4^+/+ and ATF4^−/− neurons. Bar, 50 μm. […] Cytoplasmic extracts were separated using gel electrophoresis and immunodetected using an antibody against γGCS. Total eIF2α was monitored as a loading control. (F) ATF4^+/+ (♦) and ATF4^−/− (▪) cortical neurons were treated with 200 μM BSO. At the indicated time points, cells were trypsinized, washed, and pelleted. GSH was determined in the cell pellets using HPLC electrochemical detection. Data are from three separate cultures, and each data point was measured in duplicate. Graph depicts mean±SD. (G) ATF4^+/+ cortical neurons were infected with GFP (♦), ATF4WT (▪), and ATF4ΔRK (▴) adenoviruses at an MOI of 100. At the indicated time points after infection, cells were trypsinized, washed, and pelleted. GSH was determined in the cell pellets using HPLC electrochemical detection. The graph depicts mean±SD calculated from three separate experiments for each group, and each data point was measured in duplicate. The value obtained from noninfected neurons was arbitrarily defined as 100%. […] The graph depicts mean (compared with control) ±SD calculated from five separate experiments for each group (n=29). *, P<0.05 from untreated neurons overexpressing ATF4WT by the Kruskal-Wallis test followed by Dunn's multiple comparisons test. […]
Background: Tetrazolium assays rely on reduction of a dye to a coloured formazan, in cell work by metabolically active cells.

The subject of test [2] is reduced glutathione (GSH) in cortical neurons. Briefly: Reduced glutathione (GSH) in cortical neurons by HPLC electrochemical detection. The conditions noted are these: 10 mM HCA or 200 μM BSO, time course; for glutathione concentration, ATF4+/+ neurons: ATF4+/+ cortical neurons; for glutathione concentration, ATF4−/− neurons: ATF4−/− cortical neurons. The method, then:
as §2, with “BSO. […]” for “BSO. At the indicated time points, cells were trypsinized, washed, and pelleted.”, “duplicate. […]” for “duplicate. Graph depicts mean±SD. (G) ATF4^+/+ cortical neurons were infected with GFP (♦), ATF4WT (▪), and ATF4ΔRK (▴) adenoviruses at an MOI of 100. At the indicated time points after infection, cells were trypsinized, washed, and pelleted.”, “duplicate.” for “duplicate. The value obtained from noninfected neurons was arbitrarily defined as 100%.”
Concentrations of reduced glutathione were measured using HPLC (PerkinElmer) equipped with an eight-channel coulometric array detector (ESA, Inc.). […] Glutathione concentrations of supernatant fractions were determined by injecting 5-μl aliquots onto an Ultrasphere 5 u, 4.6×250 mm, C18 column (Beckman Coulter), and eluting with a mobile phase of 50 mM NaH2PO4, 0.05 mM octane sulfonic acid, 1.5% acetonitrile (pH 2.62) at a flow rate of 1 ml/min. Peak areas were analyzed using software from ESA, Inc. Intracellular generation of ROS was determined by DCF. Cortical neurons were seeded in 96-well fluorescence plates. […] Cells were washed with HBSS and read on a plate reader (Fluorometer; MDS Analytical Technologies) at 485-nm excitation and 530-nm emission wavelengths.

The next test relates to TRB3 mRNA. Nature of the test: Real-time PCR of TRB3 mRNA expression in cortical neurons. The conditions noted are these: 10 mM HCA; ATF4-dependent (ATF4+/+ versus ATF4−/− neurons). (In general: Quantitative PCR measures a nucleic acid by following its amplification.)
For the next test, the system named is ATF4. Nature of the test: ATF4 immunoblot of nuclear extracts from cultured cortical neurons. Conditions: 10 mM HCA, 1 μg/ml arginase or 1 μM thapsigargin, versus vehicle control. As to the method: as §1
For orientation: A western blot detects proteins with antibodies after separation by electrophoresis.

As to `COc1ccc(O)c(C(C)(C)C)c1` [BHA, butylated hydroxyanisol], the “neuronal viability in neurons overexpressing ATF4WT” value in test [1] (ATF4+/+ cortical neurons infected with ATF4WT adenovirus, MOI 100, 10 μM BHA) is listed as “significantly increased neuronal viability”. Further, in test [1] (ATF4WT adenovirus, MOI 100, 10 μM BHA plus 10 mM HCA), the “protection against additional HCA toxicity in neurons overexpressing ATF4WT” value was “protected against the additional toxic effect of HCA treatment”.
On to `CCCCS(=N)(=O)CCC(N)C(=O)O` (stereo not drawn) [BSO, buthionine sulfoximine], for which, in test [2], the “glutathione concentration, ATF4+/+ neurons” value is recorded as “decline in the concentration of glutathione” and the “glutathione concentration, ATF4−/− neurons” value is “distinctly slower reduction of glutathione”. For the same compound, the “cell viability, ATF4+/+ neurons” value in test [1] (200 μM BSO, 24 h, ATF4+/+ cortical neurons) was “resulted in cell death”. Moreover, the “cell viability, ATF4−/− neurons” value in test [1] (200 μM BSO, 24 h, ATF4−/− cortical neurons) is listed as “essentially resistant”.
Take `NC(CCS(=O)(=O)O)C(=O)O` (stereo not drawn) [HCA, homocysteate]: the “TRB3 mRNA expression” value with TRB3 mRNA is “induced”. Moreover, in test [2], the “glutathione concentration, ATF4+/+ neurons” value is “progressive loss of glutathione” and the “glutathione concentration, ATF4−/− neurons” value is on record as “markedly slower decline in glutathione concentration”. Further, the ATF4 protein expression/accumulation result in the test with ATF4 is “increases the expression of ATF4”.
For the compound `C/C=C(/C)C(=O)O[C@H]1C(C)=C2[C@H]([C@@H]1OC(=O)CCCCCCC)[C@@](C)(OC(C)=O)C[C@H](OC(=O)CCC)[C@@]1(O)[C@H]2OC(=O)[C@@]1(C)O` [thapsigargin], the ATF4 protein expression/accumulation entry with ATF4 is listed as “accumulation of ATF4 protein”. In test [1] (10 mM HCA, 24 h, 1 μg/ml arginase or 1 μM thapsigargin, MTT and live/dead assay), the “protection from oxidative stress-induced neuronal cell death” value is reported as “nearly complete protection from neuronal cell death”.
